Test results from US7507730B2, “Substituted pyrazolo[1,5-a]pyrimidines as potassium channel activators” (Bristol-Myers Squibb Company, priority 2005, dated 2009).
Values belong to the molecule of their own block, whether it stands above or below them.

Molecular target: Kv1.5 (Homo sapiens, UniProt P22460)
Test: Kv1.5 inhibition assay (IKur inhibitor assay per cited references)
Format: cell-based
Settings: for IC50: read-out: Kv1.5 IC50; for Kv1.5% inhibition / inhibition at 0.3 µM: at 0.3 μM
Text: Assays to determine the degree of activity of a compound as an IKur inhibitor are well known in the art and are described in references such as J. Gen. Physiol. Apr.; 101 (4):513-43, and Br. J. Pharmacol. 1995 May; 115(2):267-74.

Sequence of Kv1.5 (P22460 whole entry): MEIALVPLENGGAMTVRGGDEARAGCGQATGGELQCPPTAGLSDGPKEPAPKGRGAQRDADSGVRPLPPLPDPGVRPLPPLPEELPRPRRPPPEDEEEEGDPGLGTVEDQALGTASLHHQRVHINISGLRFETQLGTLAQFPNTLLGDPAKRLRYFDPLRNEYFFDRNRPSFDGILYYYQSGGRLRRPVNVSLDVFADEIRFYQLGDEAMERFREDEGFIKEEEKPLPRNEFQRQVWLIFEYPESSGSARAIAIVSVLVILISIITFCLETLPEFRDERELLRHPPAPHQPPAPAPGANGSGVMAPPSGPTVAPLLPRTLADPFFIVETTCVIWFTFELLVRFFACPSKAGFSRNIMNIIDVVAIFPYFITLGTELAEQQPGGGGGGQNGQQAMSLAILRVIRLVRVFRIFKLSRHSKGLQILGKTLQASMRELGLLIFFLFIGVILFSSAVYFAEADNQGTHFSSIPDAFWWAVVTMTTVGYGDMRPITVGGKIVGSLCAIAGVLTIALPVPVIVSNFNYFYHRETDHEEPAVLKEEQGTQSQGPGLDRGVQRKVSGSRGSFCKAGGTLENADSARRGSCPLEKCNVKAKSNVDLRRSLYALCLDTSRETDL

IC50: 0.234 µM
SMILES: CC1=C(S(=O)(=O)c2ccc(C(F)(F)F)cc2)C(c2ccc(Cl)c(Cl)c2)n2nc(C)cc2N1 (single isomer, unassigned) [Example 9 Isomer 1, 7-(3,4-Dichlorophenyl)-2,5-dimethyl-6-(4-(trifluoromethyl)phenylsulfonyl)-4,7-dihydropyrazolo[1,5-a]pyrimidine]

IC50: 0.18 µM
SMILES: CC1=C(S(=O)(=O)c2ccc(Cl)cc2)C(c2ccc(Cl)c(Cl)c2)n2nc(C(F)(F)F)cc2N1 (single isomer, unassigned) [Example 4 Isomer 1, 6-(4-Chlorophenylsulfonyl)-7-(3,4-dichlorophenyl)-5-methyl-2-(trifluoromethyl)-4,7-dihydropyrazolo[1,5-a]pyrimidine]

IC50: 0.142 µM
SMILES: CC1=C(S(=O)(=O)c2ccc(F)cc2)C(c2ccc(Cl)c(Cl)c2)n2nc(C(F)(F)F)cc2N1 (single isomer, unassigned) [Example 12 Isomer 1, 7-(3,4-Dichlorophenyl)-6-(4-fluorophenylsulfonyl)-5-methyl-2-(trifluoromethyl)-4,7-dihydropyrazolo[1,5-a]pyrimidine]

Kv1.5% inhibition: 37.7%
SMILES: CC1=C(S(=O)(=O)NC(C)(C)C)C(c2ccc(Cl)c(Cl)c2)n2nc(C(F)(F)F)cc2N1 (single isomer, unassigned) [Example 58 Isomer 2, N-tert-Butyl-7-(3,4-dichlorophenyl)-5-methyl-2-(trifluoromethyl)-4,7-dihydropyrazolo[1,5-a]pyrimidine-6-sulfonamide]

Kv1.5% inhibition: 82.9%
SMILES: COc1ccc(S(=O)(=O)C2=C(C)Nc3cc(C(F)(F)F)nn3C2c2ccc(Cl)cc2)cc1 (single isomer, unassigned) [Example 25 Isomer 2, 7-(4-Chlorophenyl)-6-(4-methoxyphenylsulfonyl)-5-methyl-2-(trifluoromethyl)-4,7-dihydropyrazolo[1,5-a]pyrimidine]

inhibition at 0.3 µM: 89%
SMILES: CC1=C(C(=O)N(C)S(=O)(=O)c2ccc(Cl)cc2)C(c2ccc(Cl)c(Cl)c2)n2nccc2N1 (racemic) [Example 75, N-(4-Chlorophenylsulfonyl)-7-(3,4-dichlorophenyl)-N,5-dimethyl-4,7-dihydropyrazolo[1,5-a]pyrimidine-6-carboxamide]

inhibition at 0.3 µM: 12%
SMILES: Cc1nc2cc(C(F)(F)F)nn2c(-c2ccc(Cl)c(Cl)c2)c1S(=O)(=O)N(C)c1ccccc1 (racemic) [Example 62, 7-(3,4-Dichlorophenyl)-N,5-dimethyl-N-phenyl-2-(trifluoromethyl)pyrazolo[1,5-a]pyrimidine-6-sulfonamide]

Kv1.5% inhibition: 42.3%
SMILES: CCN(CC)S(=O)(=O)C1=C(C)Nc2cc(C)nn2C1c1ccc(Cl)c(Cl)c1 (single isomer, unassigned) [Example 61 Isomer 2, 7-(3,4-Dichlorophenyl)-N,N-diethyl-2,5-dimethyl-4,7-dihydropyrazolo[1,5-a]pyrimidine-6-sulfonamide]

inhibition at 0.3 µM: 79%
SMILES: CC1=C(C(=O)N(C)S(=O)(=O)c2ccccc2)C(c2ccc(Cl)c(Cl)c2)n2nccc2N1 (racemic) [Example 74, 7-(3,4-Dichlorophenyl)-N,5-dimethyl-N-(phenylsulfonyl)-4,7-dihydropyrazolo[1,5-a]pyrimidine-6-carboxamide]

inhibition at 0.3 µM: 89.8%
SMILES: CC1=C(S(=O)(=O)N2CCCC2)C(c2ccc(Cl)c(Cl)c2)n2nc(C(F)(F)F)cc2N1 (single isomer, unassigned) [Example 59 Isomer 1, 7-(3,4-Dichlorophenyl)-5-methyl-6-(pyrrolidin-1-ylsulfonyl)-2-(trifluoromethyl)-4,7-dihydropyrazolo[1,5-a]pyrimidine]

inhibition at 0.3 µM: 31%
SMILES: CCN(C(=O)C1=C(C)Nc2cc(C(F)(F)F)nn2C1c1ccc(Cl)c(Cl)c1)S(=O)(=O)c1ccc(Cl)cc1 (single isomer, unassigned) [Example 93 Isomer 1, N-(4-Chlorophenylsulfonyl)-7-(3,4-dichlorophenyl)-N-ethyl-5-methyl-2-(trifluoromethyl)-4,7-dihydropyrazolo[1,5-a]pyrimidine-6-carboxamide]
